Source: publication PMC10381486, “Hydantoanabaenopeptins from Lake Kinneret Microcystis Bloom, Isolation, and Structure Elucidation of the Possible Intermediates in the Anabaenopeptins Biosynthesis” (Marine Drugs, 2023)

Experiments:
chymotrypsin = chymotrypsin (Bos taurus, UniProt P00766); test: Chymotrypsin inhibition assay (SGGPNA substrate, 96-well plate); assay type: biochemical; conditions: Tris buffer pH 7.5, 5 min pre-incubation at 37 °C, kinetic absorbance at 405 nm over 30 min
Method: […] Assays were performed in a 96-well plate format.
The assay was performed in a Tris buffer (0.6 gr TRIS HCl/100 mL H2O, pH 7.5). The enzyme and the substrate Suc-Gly-Gly-phenylalanine-p-nitroanilide (SGGPNA) were dissolved in the buffer at a concentration of 1 mg/mL. To each well were added 100 μL of buffer, 10 μL of enzyme, and 10 μL of sample. Then, the plate was placed in the spectrophotometer for a 5 min incubation at 37 °C. Thereafter, to each well, 100 μL of substrate solution was added, and the plate was placed in the spectrophotometer for the kinetic measurement of the absorbance intensity over 30 min at a wavelength of 405 nm.

trypsin = target: T1, trypsin (Bos taurus, UniProt P00760); test: Trypsin inhibition assay (BAPNA substrate, 96-well plate); assay type: biochemical; conditions: Tris buffer pH 7.5, 5 min pre-incubation at 37 °C, kinetic absorbance at 405 nm over 30 min
T1 construct: gene PRSS1
T1 sequence (P00760 24-246): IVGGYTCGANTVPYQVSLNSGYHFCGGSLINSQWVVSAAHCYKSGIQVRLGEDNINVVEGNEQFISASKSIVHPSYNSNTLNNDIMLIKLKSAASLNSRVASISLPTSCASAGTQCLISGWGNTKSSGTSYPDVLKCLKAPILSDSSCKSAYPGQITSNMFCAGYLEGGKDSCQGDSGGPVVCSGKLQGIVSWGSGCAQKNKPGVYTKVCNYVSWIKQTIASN
Method: The samples for biological assays were dissolved in DMSO at a concentration of 1 mg/mL and were tested for inhibition of the proteases at a single concentration: 1 […]. Assays were performed in a 96-well plate format.
The assay was performed in a Tris buffer (0.6 g Tris HCl in 100 mL H2O, pH 7.5). Benzoyl-L-arginine-p-nitroanilide hydrochloride (BAPNA), the trypsin substrate, was dissolved at 1 mg/mL in 1:9 DMSO/buffer. The enzyme was dissolved in buffer at 1 mg/mL. To each well were added 100 μL of buffer, 10 μL of enzyme, and 10 μL of sample. The plate was placed in the spectrophotometer at 37 °C. After 5 min, 100 μL of substrate solution was added to each well, and the plate was placed in the spectrophotometer for the kinetic measurement of the absorbance intensity over 30 min at a wavelength of 405 nm.

Substance: Dht-CO-cyclo-[Lys-Val-Hty-NMeAla-Phe] (lariat or depsi) [Compound 5, ^1[Dht]-anabaenopeptin A, new anabaenopeptin with dihomotyrosine at position 1]
- inhibition of the serine protease chymotrypsin (chymotrypsin; single concentration 53.3 μM): nonactive

Substance: Hydanto-oscillamide Y [Compound 4]
- inhibition of the serine protease chymotrypsin (chymotrypsin; single concentration 54.2 μM): nonactive

Substance: Hydantoanabaenopeptin B [Compound 2]
- inhibition of the serine protease trypsin (trypsin; single concentration 55.6 μM): nonactive

Substance: Phe, NMeAla, Hty, Ile, Lys, and Arg (lariat or depsi) [Compound 3, Hydantoanabaenopeptin F, hydantoin derivative of anabaenopeptin F isolated from Lake Kinneret Microcystis bloom]
- inhibition of the serine protease trypsin (trypsin; single concentration 54.6 μM): nonactive

Substance: cyclo-(Phe-NMeAla-Hty-Val-Lys-ε-NH)- (lariat or depsi) [Compound 1, Hydantoanabaenopeptin A, hydantoin derivative of anabaenopeptin A isolated from Lake Kinneret Microcystis bloom]
- inhibition of the serine protease chymotrypsin (chymotrypsin; single concentration 55.1 μM): nonactive

Substance: hydanto-Dht-[Lys-Val-Hty-NMeAla-Phe] (lariat or depsi) [Compound 6, ^1[Dht]-hydantoanabaenopeptin A, hydantoin derivative of 1[Dht]-anabaenopeptin A]
- inhibition of the serine protease chymotrypsin (chymotrypsin; single concentration 53.3 μM): nonactive
